Laboratory results taken from patent US20250230193A1, “CYCLIC COMPOUND HAVING SELECTIVE KRAS INHIBITORY EFFECT ON HRAS AND NRAS” (CHUGAI SEIYAKU KABUSHIKI KAISHA, priority 2022, published 2025).
Where a SMILES comes first, the peptide text is derived from it. Bridges are numbered along the chain shown (N, C = ends). [ ]: non-standard residue; d: D form. The star is where a group is joined. hPhe(3-Cl-4-CF3) = N[C@@H](CCc1ccc(C(F)(F)F)c(Cl)c1)C(=O)O; NPrPhe(4-CF3) = CCCN[C@@H](Cc1ccc(C(F)(F)F)cc1)C(=O)O; NMeGly(cPent) = CN[C@H](C(=O)O)C1CCCC1; Hyp = O=C(O)[C@@H]1C[C@@H](O)CN1; NMeL = CN[C@@H](CC(C)C)C(=O)O; Morpholide = C1CN(*)CCO1; Ac5c = NC1(C(=O)O)CCCC1; Sar = CNCC(=O)O

What was measured:
[1] = biological target: GDP-bound NRAS wild-type protein (Homo sapiens, UniProt P01111); test: Binding to NRAS by surface plasmon resonance (SPR), Single Cycle Kinetics
[2] = biological target: GDP-bound HRAS wild-type protein (Homo sapiens, UniProt P01112); test: Binding to HRAS by surface plasmon resonance (SPR), Single Cycle Kinetics
[3] = SPR, GDP-bound NRAS wild-type vs GDP-bound KRAS wild-type
[4] = SPR, GDP-bound HRAS wild-type vs GDP-bound KRAS wild-type

Chain of GDP-bound NRAS wild-type protein (P01111 whole entry): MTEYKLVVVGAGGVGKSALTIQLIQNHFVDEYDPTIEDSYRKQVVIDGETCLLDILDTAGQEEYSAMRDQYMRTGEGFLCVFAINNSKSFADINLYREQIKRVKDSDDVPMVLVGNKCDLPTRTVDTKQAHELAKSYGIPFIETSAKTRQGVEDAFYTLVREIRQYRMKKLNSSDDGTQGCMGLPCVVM
Chain of GDP-bound HRAS wild-type protein (P01112 whole entry): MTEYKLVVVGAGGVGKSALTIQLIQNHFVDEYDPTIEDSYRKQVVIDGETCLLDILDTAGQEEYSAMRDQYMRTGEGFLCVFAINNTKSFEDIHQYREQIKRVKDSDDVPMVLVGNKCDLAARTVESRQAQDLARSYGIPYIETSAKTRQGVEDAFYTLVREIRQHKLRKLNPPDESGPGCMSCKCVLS

Compound: CC[C@H](C)[C@@H]1NC(=O)[C@H](CC)N(C)C(=O)C[C@@H](C(=O)N(CC)CC)N(C)C(=O)[C@H](C2CCCC2)N(C)C(=O)C2(CC(C)(C)C2)NC(=O)[C@@H]2C[C@@H](C)CN2C(=O)[C@H](CCc2ccc(C(F)(F)F)c(OC)c2)NC(=O)CN(C)C(=O)[C@H](Cc2ccc(C)cc2)N2CC/C=C\C[C@@H](C2=O)N(C)C(=O)CN(C)C1=O [PP1841]
- NRAS/KRAS (ratio of KD value for NRAS to KD value for KRAS) ([1]; KD ratio, GDP-bound NRAS wild-type vs GDP-bound KRAS wild-type, SPR): AA (a compound having 20 or more is denoted as AA)
- HRAS/KRAS (ratio of KD value for HRAS to KD value for KRAS) ([2]; KD ratio, GDP-bound HRAS wild-type vs GDP-bound KRAS wild-type, SPR): A (a compound having 10 or more and less than 20 is denoted as A)

Compound: C#CCN1CC(=O)N(C)[C@H]2C/C=C\CCN(C2=O)[C@@H](Cc2ccc(C(F)(F)F)cc2)C(=O)N(C)CC(=O)N[C@@H](CCc2cc(F)c(C(F)(F)F)c(F)c2)C(=O)N2C[C@H](OCC)C[C@H]2C(=O)NC2(CC(C)(C)C2)C(=O)N(C)[C@@H](C2CCCC2)C(=O)N(C)[C@H](C(=O)N(C)C)CC(=O)N(C)[C@@H](CCC)C(=O)N[C@@H]([C@@H](C)CC)C1=O [PP2103]
- NRAS/KRAS (ratio of KD value with respect to NRAS to KD value with respect to KRAS) [1, 3]: A (a compound having 10 or more and less than 20 is denoted as A)
- HRAS/KRAS (ratio of KD value with respect to HRAS to KD value with respect to KRAS) [2, 4]: A (a compound having 10 or more and less than 20 is denoted as A)

Compound: CCC[C@H]1C(=O)N[C@@H]([C@@H](C)CC)C(=O)N(C2CC2)CC(=O)N(C)[C@H]2C/C=C\CCN(C2=O)[C@@H](Cc2ccc(C(F)(F)F)cc2)C(=O)N(C)CC(=O)N[C@@H](CCc2ccc(C(F)(F)F)c(OC)c2)C(=O)N2C[C@H](OCC)C[C@H]2C(=O)NC2(CC(C)(C)C2)C(=O)N(C)[C@@H](CC2CCC2)C(=O)N(C)[C@H](C(=O)N(C)C)CC(=O)N1C [PP2770]
- NRAS/KRAS (ratio of KD value with respect to GDP-bound NRAS wild-type protein to KD value with respect to KRAS) ([1]; KD ratio NRAS/KRAS, class symbols): A (a compound having 10 or more and less than 20 is denoted as A)
- HRAS/KRAS (ratio of KD value with respect to GDP-bound HRAS wild-type protein to KD value with respect to KRAS) ([2]; KD ratio HRAS/KRAS, class symbols): A (a compound having 10 or more and less than 20 is denoted as A)

Compound: CCCN(C)C(=O)[C@@H]1CC(=O)N(C)[C@@H](C2CC2)C(=O)N[C@@H]([C@@H](C)CC)C(=O)N(C)CC(=O)N(C)[C@H]2C/C=C\CCN(C2=O)[C@@H](Cc2ccc(C(F)(F)F)cc2)C(=O)N(C)CC(=O)N[C@@H](CCc2ccc(C(F)(F)F)c(OC)c2)C(=O)N2C[C@@H](C)C[C@H]2C(=O)NC2(CCC2)C(=O)N(C)[C@@H](C2CCCC2)C(=O)N1C [PP2070]
- NRAS/KRAS (ratio of KD value with respect to NRAS to KD value with respect to KRAS) [1, 3]: A (a compound having 10 or more and less than 20 is denoted as A)
- HRAS/KRAS (ratio of KD value with respect to HRAS to KD value with respect to KRAS) [2, 4]: A (a compound having 10 or more and less than 20 is denoted as A)

Compound: CCC[C@H]1C(=O)N[C@@H]([C@@H](C)CC)C(=O)N(C)CC(=O)N(C)[C@H]2C/C=C\CCN(C2=O)[C@@H](CC2CCC(F)(F)CC2)C(=O)N(C)CC(=O)N[C@@H](CCc2ccc(C(F)(F)F)c(OC)c2)C(=O)N2C[C@@H](C)C[C@H]2C(=O)N(C)C2(CCC2)C(=O)N(C)[C@@H](C2CCCC2)C(=O)N(C)[C@H](C(=O)N(C)C)CC(=O)N1C [PP2376]
- NRAS/KRAS (ratio of KD value with respect to NRAS to KD value with respect to KRAS) [1, 3]: A (a compound having 10 or more and less than 20 is denoted as A)
- HRAS/KRAS (ratio of KD value with respect to HRAS to KD value with respect to KRAS) [2, 4]: A (a compound having 10 or more and less than 20 is denoted as A)

Compound: CCCN1C(=O)CN(C)C(=O)CNC(=O)[C@H]([C@@H](C)CC)NC(=O)[C@H](CC(C)C)N(C)C(=O)C[C@@H](C(=O)N2CCOCC2)NC(=O)[C@H](C2CCCC2)N(C)C(=O)C2(CCCC2)NC(=O)[C@@H]2C[C@@H](OCC)CN2C(=O)[C@H](CCc2ccc(C(F)(F)F)c(Cl)c2)NC(=O)CN(C)C(=O)[C@@H]1Cc1ccc(C(F)(F)F)cc1 [PP0329] ([NMeL]IG[Sar][NPrPhe(4-CF3)][Sar][hPhe(3-Cl-4-CF3)][Hyp](Et)[Ac5c][NMeGly(cPent)]D-Morpholide; lactam N-11)
- NRAS/KRAS (ratio of KD for GDP-bound NRAS wild-type to KD for KRAS) ([1]; KD ratio NRAS/KRAS, SPR): B (a compound having 3 or more and less than 10 is denoted as B)
- HRAS/KRAS (ratio of KD for GDP-bound HRAS wild-type to KD for KRAS) ([2]; KD ratio HRAS/KRAS, SPR): C (A compound having a KD ratio of 0.1 or more and less than 3 is denoted as C)

Compound: CC[C@H](C)[C@@H]1NC(=O)[C@H](CC(C)C)N(C)C(=O)C[C@@H](C(=O)N2CCOCC2)N(C)C(=O)[C@H](C2CCCC2)N(C)C(=O)C2(CCCC2)NC(=O)[C@@H]2CCCN2C(=O)[C@H](CCc2ccc(C(F)(F)F)c(Cl)c2)NC(=O)CN(C)C(=O)[C@H](Cc2ccc(OC(F)(F)F)cc2)N2CCCC[C@@H](C2=O)N(C)C(=O)CN(C)C1=O [PP0536]
- NRAS/KRAS (ratio of KD value with respect to GDP-bound NRAS wild-type protein to KD value with respect to KRAS) ([1]; KD ratio NRAS/KRAS, SPR): B (a compound having 3 or more and less than 10 is denoted as B)
- HRAS/KRAS (ratio of KD value with respect to GDP-bound HRAS wild-type protein to KD value with respect to KRAS) ([2]; KD ratio HRAS/KRAS, SPR): B (a compound having 3 or more and less than 10 is denoted as B)
